Experimental data: patent US10308620B2, “Muscarinic M1 receptor positive allosteric modulators” (SUVEN LIFE SCIENCES LIMITED, priority 2015, dated 2019)

Legend:
Male Wistar rats = assay: Object recognition task model (time induced memory deficit); format: in vivo, rat; settings: p.o.; for Exploration time mean ± S.E.M, Familiar object / Exploration time mean ± S.E.M, Novel object: choice trial 24 hours after T1
Method: Object Recognition Task Model
The cognition enhancing properties of compounds of this invention were estimated by using this model.
Male Wistar rats (8-10 weeks old) were used as experimental animals. Four animals were housed in each cage. Animals were kept on 20% food deprivation from a day prior to experimentation. Water was provided ad libitum throughout the experiment. Animals were maintained on a 12 hours light/dark cycle in temperature and humidity controlled room. The experiment was carried out in an open field made up of acrylic. Rats were habituated to individual arenas (open field) for 1 hour in the absence of any objects on day 1.
One group of 12 rats received vehicle and another set of animals received test compounds or test compounds and Donepezil, before the familiar (T1) and choice (T2) trials. During the familiarization phase, (T1), the rats were placed individually in the arena for 3 minutes, in which two identical objects (a1 and a2) were positioned 10 cm from the wall. 24 hours after T1, trial for long-term memory test was performed. The same rats were placed in the same arena as they were placed in T1 trial. During the choice phase (T2) rats were allowed to explore the arena for 3 minutes in presence of a copy of familiar object (a3) and one novel object (b). During the T1 and T2 trial, explorations of each object (defined as sniffing, licking, chewing or having moving vibrissae whilst directing the nose towards the object at a distance of less than 1 cm) were recorded using stopwatch.
T1 is the total time spent exploring the familiar objects (a1+a2).
T2 is the total time spent exploring the familiar object and novel object (a3+b). Discriminative index=Time spent with novel object/(time spent with novel and familiar object).
The object recognition test was performed as described in Behavioural Brain Research, 1988, 31, 47-59.

[1] = Rodent brain penetration study; format: in vivo; settings: rat, oral, 3 mg/kg, p.o., male Wistar rats, read-out: Single dose Rat Brain Penetration (Cb/Cp)
Method: Rodent Brain Penetration Study
Male Wistar rats (260±40 grams) were used as experimental animals. Three animals were housed in each cage. Animals were given water and food ad libitum throughout the experiment and maintained on a 12 hours light/dark cycle.
Brain penetration was determined in discrete manner in rats. One day prior to dosing day, male Wistar rats were acclimatized and randomly grouped according to their weight. At each time point (0.50, 1 and 2 hours) n=3 animals were used.
The test compounds were suitably preformulated and administered orally at (free base equivalent) 3 mg/kg. Blood samples were removed via cardiac puncture by using isoflurane anesthesia. The animals were sacrificed to collect brain tissue. Plasma was separated and brain samples were homogenized and stored frozen at −20° C. until analysis. The concentrations of the test compounds in plasma and brain were determined using LC-MS/MS method.
The test compounds were quantified in plasma and brain homogenate by qualified LC-MS/MS method using suitable extraction technique. The test compounds were quantified in the calibration range of 1-500 ng/mL in plasma and brain homogenate. Study samples were analyzed using calibration samples in the batch and quality control samples spread across the batch. Extent of brain-plasma ratio was calculated (Cb/Cp).

[2] = molecular target: recombinant human Muscarinic M1 receptor (Homo sapiens (Human), UniProt P11229); assay: Allosteric potency EC50, CHO cells with pCRE-Luc reporter, in presence of EC20 of acetylcholine; format: cell-based; settings: 4 hours
Method: Determination of Allosteric Potency EC50 Values for Muscarinic M1 Receptor:
A stable CHO cell line expressing recombinant human Muscarinic M1 receptor and pCRE-Luc reporter system was used for cell-based assay. The assay offers a non-radioactive based approach to determine binding of a compound to GPCRs. In this specific assay, the level of intracellular cyclic AMP which is modulated by activation or inhibition of the receptor is measured. The recombinant cells harbor luciferase reporter gene under the control of cAMP response element.
The above cells were grown in 96 well clear bottom white plates in Hams F12 medium containing 10% fetal bovine serum (FBS). Prior to the addition of compounds or standard agonist, cells were serum starved overnight. Increasing concentrations of test compounds were added along with EC20 of acetylcholine in OptiMEM medium to the cells. The incubation was continued at 37° C. in CO2 incubator for 4 hours. Medium was removed and cells were washed with phosphate buffered saline. The cells were lysed and luciferase activity was measured in a Luminometer. Luminescence units were plotted against the compound concentrations using Graphpad software. EC50 values of the compounds were defined as the concentration required in stimulating the luciferase activity by 50% in presence of EC20 of acetylcholine.

[3] = Rodent pharmacokinetic study; format: in vivo, rat; settings: male Wistar rats; for clearance / half-life / Vd / Cmax / Tmax / bioavailability: rat, plasma; for Vd: read-out: Vz; for bioavailability: 3 mg/kg oral vs 1 mg/kg i.v.
Method: Rodent Pharmacokinetic Study
Male Wistar rats (260±50 grams) were used as experimental animals. Animals were housed individually in polypropylene cage. Two days prior to study, male Wistar rats were anesthetized with isoflurane for surgical placement of jugular vein catheter. Rats were randomly divided for oral (3 mg/kg) and intravenous (1 mg/kg) dosing (n=3/group) and fasted overnight before oral dosing (p.o.). However, rats allocated to intravenous (i.v.) dosing food and water was provided ad libitum.
At pre-determined point, blood was collected through jugular vein and replenished with an equivalent volume of normal saline. Collected blood was transferred into a labeled eppendorf tube containing 10 μL of heparin as an anticoagulant. Typically blood samples were collected at following time points: 0.08, 0.25, 0.5, 1, 2, 4, 6, 8, and 24 hours post dose. Blood was centrifuged at 4000 rpm for 10 minutes. Plasma was separated and stored frozen at −80° C. until analysis. The concentrations of the test compounds were quantified in plasma by qualified LC-MS/MS method using suitable extraction technique. The test compounds were quantified in the calibration range around 1-1000 ng/mL in plasma. Study samples were analyzed using calibration samples in the batch and quality control samples spread across the batch.
Pharmacokinetic parameters Cmax, Tmax, AUCt, T1/2, clearance, Vz and bioavailability were calculated by non-compartmental model using standard non-compartmental model by using Phoenix WinNonlin 6.0.2 or 6.0.3 version Software package.

Chain of recombinant human Muscarinic M1 receptor (P11229 whole entry): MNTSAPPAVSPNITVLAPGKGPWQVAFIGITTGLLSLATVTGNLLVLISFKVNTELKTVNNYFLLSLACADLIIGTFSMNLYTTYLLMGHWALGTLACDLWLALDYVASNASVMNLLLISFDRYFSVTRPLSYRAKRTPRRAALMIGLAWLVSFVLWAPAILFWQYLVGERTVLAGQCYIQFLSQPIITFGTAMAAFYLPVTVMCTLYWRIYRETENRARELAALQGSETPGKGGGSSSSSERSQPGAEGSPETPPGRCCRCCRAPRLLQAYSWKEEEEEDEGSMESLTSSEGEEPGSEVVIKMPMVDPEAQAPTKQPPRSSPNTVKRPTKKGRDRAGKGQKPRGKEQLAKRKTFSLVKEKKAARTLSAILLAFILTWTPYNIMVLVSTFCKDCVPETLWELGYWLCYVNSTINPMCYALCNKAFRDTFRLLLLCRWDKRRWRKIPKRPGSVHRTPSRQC

Compound | Kp [1] | EC50 [2] [nM] | AUC0-t ([3]; 1 mg/kg i.v. (bolus)) [ng·h/mL] | AUC0-t ([3]; 3 mg/kg oral (gavage)) [ng·h/mL] | clearance ([3]; iv, 1 mg/kg i.v. (bolus)) [mL/min/kg] | half-life ([3]; iv, 1 mg/kg i.v. (bolus)) [h] | Vd ([3]; iv, 1 mg/kg i.v. (bolus)) [L/kg] | Cmax ([3]; 3 mg/kg oral (gavage)) [ng/mL] | Tmax ([3]; 3 mg/kg oral (gavage)) [h] | half-life ([3]; 3 mg/kg oral (gavage)) [h] | bioavailability [3] [%] | Inference (Male Wistar rats; 10 mg/kg) | Exploration time mean ± S.E.M, Familiar object (Male Wistar rats; 10 mg/kg) [s] | Exploration time mean ± S.E.M, Novel object (Male Wistar rats; 10 mg/kg) [s] | Inference (Male Wistar rats; 3 mg/kg) | Exploration time mean ± S.E.M, Familiar object (Male Wistar rats; 3 mg/kg) [s] | Exploration time mean ± S.E.M, Novel object (Male Wistar rats; 3 mg/kg) [s] | Inference (Male Wistar rats; 1 mg/kg) | Exploration time mean ± S.E.M, Familiar object (Male Wistar rats; 1 mg/kg) [s] | Exploration time mean ± S.E.M, Novel object (Male Wistar rats; 1 mg/kg) [s]
O=C(N[C@H]1CCCC[C@@H]1O)C1=CN(Cc2ccccc2)c2ccccc2O1 [Example 4, N-(cis-1S,2S-2-Hydroxycyclohexyl)-4-benzyl-4H-benzo[1,4]oxazine-2-carboxamide] | 1.43 ± 0.01 | 1430 | 415 ± 17 | 607 ± 62 | 40 ± 2 | 1.4 ± 0.1 | 4.7 ± 0.1 | 245 ± 27 | 0.58 ± 0.38 | 1.5 ± 0.3 | 49 ± 5 | Active | 7.43 ± 0.67 | 11.21 ± 1.26 | – | – | – | – | – | –
O=C(N[C@H]1CCCC[C@@H]1O)C1=CN(Cc2cccc(F)c2)c2ccccc2O1 [Example 7, N-(cis-1S, 2S-2-Hydroxycyclohexyl)-4-(3-fluorobenzyl)-4H-benzo[1,4]oxazine-2-carboxamide] | 1.04 ± 0.16 | 891 | 553 ± 42 | 652 ± 227 | 29 ± 2 | 1.7 ± 0.3 | 4.3 ± 0.9 | 313 ± 111 | 0.5 | 1.8 ± 0.3 | 39 ± 14 | – | – | – | Active | 9.23 ± 1.53 | 13.92 ± 1.99 | – | – | –
COc1cc(CN2C=C(C(=O)N[C@H]3CCCC[C@@H]3O)Oc3ccccc32)ccn1 [Example 11, N-(cis-1S,2S-2-Hydroxycyclohexyl)-4-(2-methoxypyridin-4-ylmethyl)-4H-benzo[1,4]oxazine-2-carboxamide] | 1.44 ± 0.16 | 498 | 838 ± 163 | 1500 ± 200 | 20 ± 4 | 1.9 ± 0.6 | 3.1 ± 0.3 | 392 ± 43 | 1 | 1.8 ± 0.1 | 60 ± 8 | – | – | – | – | – | – | Active | 10.05 ± 1.66 | 16.92 ± 1.86
O=C(NC1CCOCC1O)C1=CN(Cc2cccc(F)c2F)c2ccccc2O1 (centres unmarked) [Example 20, N-(3-Hydroxytetrahydrpyran-4-yl)-4-(2,3-difluorobenzyl)-4H-benzo[1,4]oxazine-2-carboxamide] | 0.82 ± 0.25 | 1250 | – | – | – | – | – | – | – | – | – | Active | 12.17 ± 1.84 | 19.94 ± 3.02 | – | – | – | – | – | –
O=C(N[C@H]1CCCC[C@@H]1O)C1=CN(Cc2ccc(Cl)nc2)c2ccccc2O1 [Example 21, N-(cis-1S,2S-2-Hydroxycyclohexyl)-4-(2-chloropyridin-5-ylmethyl)-4H-benzo[1,4]oxazine-2-carboxamide] | 0.25 ± 0.08 | 369 | 1490 ± 149 | 4270 ± 800 | 11 ± 1 | 1.7 ± 0.3 | 1.5 ± 0.1 | 992 ± 150 | 0.67 ± 0.29 | 2.7 ± 0.3 | 95 ± 18 | – | – | – | – | – | – | Active | 9.18 ± 1.63 | 17.67 ± 2.89

Further compounds by falling EC50 [2], results first:

Kp [1] | EC50 [2] [nM] | AUC0-t ([3]; 1 mg/kg i.v. (bolus)) [ng·h/mL] | AUC0-t ([3]; 3 mg/kg oral (gavage)) [ng·h/mL] | clearance ([3]; iv, 1 mg/kg i.v. (bolus)) [mL/min/kg] | half-life ([3]; iv, 1 mg/kg i.v. (bolus)) [h] | Vd ([3]; iv, 1 mg/kg i.v. (bolus)) [L/kg] | Cmax ([3]; 3 mg/kg oral (gavage)) [ng/mL] | Tmax ([3]; 3 mg/kg oral (gavage)) [h] | half-life ([3]; 3 mg/kg oral (gavage)) [h] | bioavailability [3] [%] | Compound | Inference (Male Wistar rats; 10 mg/kg) | Exploration time mean ± S.E.M, Familiar object (Male Wistar rats; 10 mg/kg) [s] | Exploration time mean ± S.E.M, Novel object (Male Wistar rats; 10 mg/kg) [s] | Inference (Male Wistar rats; 3 mg/kg) | Exploration time mean ± S.E.M, Familiar object (Male Wistar rats; 3 mg/kg) [s] | Exploration time mean ± S.E.M, Novel object (Male Wistar rats; 3 mg/kg) [s] | Inference (Male Wistar rats; 1 mg/kg) | Exploration time mean ± S.E.M, Familiar object (Male Wistar rats; 1 mg/kg) [s] | Exploration time mean ± S.E.M, Novel object (Male Wistar rats; 1 mg/kg) [s]
1.96 ± 0.91 | 1180 | 452 ± 135 | 719 ± 269 | 39 ± 10 | 1.2 ± 0.6 | 3.5 ± 1 | 159 ± 26 | 1.5 ± 0.9 | 3.2 ± 2 | 53 ± 20 | O=C(N[C@H]1CCCC[C@@H]1O)C1=CN(Cc2cccc(F)c2F)c2ncccc2O1 [Example 33, N-(cis-1S,2S-2-Hydroxycyclohexyl)-4-(2,3-difluorobenzyl)-4H-pyrido[3,2-b][1,4]oxazine-2-carboxamide] | – | – | – | – | – | – | – | – | –
0.65 ± 0.2 | 699 | 711 ± 137 | 1180 ± 245 | 24 ± 4 | 4.2 ± 2.2 | 8.3 ± 4.1 | 320 ± 68 | 1.33 ± 0.58 | 2.9 ± 1.3 | 55 ± 11 | COc1cccc(CN2C=C(C(=O)N[C@H]3CCCC[C@@H]3O)Oc3ccccc32)c1 [Example 9, N-(cis-1S, 2S-2-Hydroxycyclohexyl)-4-(3-methoxybenzyl)-4H-benzo[1,4]oxazine-2-carboxamide] | – | – | – | – | – | – | Active | 8.64 ± 0.82 | 18.55 ± 1.70
1.93 ± 0.37 | 420 | 533 ± 62 | 371 ± 149 | 31 ± 4 | 3.6 ± 3 | 9.8 ± 8 | 132 ± 32 | 1 | 2.3 ± 0.5 | 23 ± 9 | O=C(N[C@H]1CCCC[C@@H]1O)C1=CN(Cc2cccc(F)c2)c2cccc(F)c2O1 [Example 51, N-(cis-1S,2S-2-Hydroxycyclohexyl)-4-{3-fluorobenzyl}-8-fluoro-4H-benzo[1,4]oxazine-2-carboxamide] | – | – | – | – | – | – | – | – | –
1.92 ± 0.24 | 149 | 600 ± 74 | 467 ± 169 | 27 ± 3 | 9.2 ± 2.2 | 22 ± 8 | 91 ± 38 | 4 | 2.6 ± 0.2 | 26 ± 9 | O=C(N[C@H]1CCCC[C@@H]1O)C1=CN(Cc2cccc(C(F)(F)F)c2)c2ccccc2O1 [Example 17, N-(cis-1S, 2S-2-Hydroxycyclohexyl)-4-(3-trifluoromethylbenzyl)-4H-benzo[1,4]oxazine-2-carboxamide] | – | – | – | – | – | – | – | – | –
0.9 ± 0.15 | 135 | 1150 ± 62 | 3980 ± 533 | 14 ± 1 | 4.5 ± 0.2 | 5.6 ± 0.5 | 430 ± 35 | 2.83 ± 2.02 | 3.9 ± 0.1 | 115 ± 15 | COc1ccc(CN2C=C(C(=O)N[C@H]3CCCC[C@@H]3O)Oc3ccccc32)cc1 [Example 5, N-(cis-1S, 2S-2-Hydroxycyclohexyl)-4-(4-methoxybenzyl)-4H-benzo[1,4]oxazine-2-carboxamide] | – | – | – | – | – | – | – | – | –
